Reference: ChEMBL document CHEMBL4251553, “Synthesis, anticancer evaluation and pharmacokinetic study of novel 10-O-phenyl ethers of dihydroartemisinin” (Eur J Med Chem, 2017)
The source made the active and inactive calls. The calls are words filed in the database; no cut-off is given here.

Tests used:
NCI/ADR-RES [1] = assay: Cell cycle arrest in human MCF7/ADR cells assessed as accumulation at S-phase at 1 uM after 24 hrs by propidium iodide staining based flow cytometry (reference value: 25.87%); format: functional
[2] = Plasma concentration in Sprague-Dawley rat at 10 mg/kg, iv administered as single dose measured at 0.083 hrs post dosing by LC-MS/MS analysis; format: ADME, organism-based
MCF7 [3] = assay: Cell cycle arrest in human MCF7 cells assessed as accumulation at S-phase at 0.5 uM after 48 hrs by propidium iodide staining based flow cytometry (reference value: 18.39%); format: functional
[4] = Plasma concentration in Sprague-Dawley rat at 10 mg/kg, iv administered as single dose measured at 0.5 hrs post dosing by LC-MS/MS analysis; format: ADME, organism-based
MCF7 [5] = assay: Cell cycle arrest in human MCF7 cells assessed as accumulation at G0/G1 phase at 0.5 uM after 48 hrs by propidium iodide staining based flow cytometry (reference value: 57.21%); format: functional
MCF7 [6] = assay: Cell cycle arrest in human MCF7 cells assessed as accumulation at sub-G1 phase at 0.5 uM after 24 hrs by propidium iodide staining based flow cytometry (reference value: 1.78%); format: functional
NCI/ADR-RES [7] = assay: Antiproliferative activity against human MCF7/ADR cells after 96 hrs by MTT assay; format: functional
NCI/ADR-RES [8] = assay: Cell cycle arrest in human MCF7/ADR cells assessed as accumulation at G0/G1 phase at 0.5 uM after 24 hrs by propidium iodide staining based flow cytometry (reference value: 45.98%); format: functional
NCI/ADR-RES [9] = assay: Effect on P-gp protein expression in human MCF7/ADR cells at 0.05 to 0.1 uM after 24 to 48 hrs by Western blot analysis; format: functional, cell-based
MCF7 [10] = assay: Antiproliferative activity against human MCF7 cells after 96 hrs by MTT assay; format: functional; conditions: MCF7, 96 h
MCF7 [11] = assay: Cell cycle arrest in human MCF7 cells assessed as accumulation at S-phase at 1 uM after 24 hrs by propidium iodide staining based flow cytometry (reference value: 18.24%); format: functional
MCF7 [12] = assay: Cell cycle arrest in human MCF7 cells assessed as accumulation at G2/M phase at 0.5 uM after 24 hrs by propidium iodide staining based flow cytometry (reference value: 22.57%); format: functional
NCI/ADR-RES [13] = assay: Cell cycle arrest in human MCF7/ADR cells assessed as accumulation at G0/G1 phase at 0.5 uM after 48 hrs by propidium iodide staining based flow cytometry (reference value: 38.76%); format: functional
NCI/ADR-RES [14] = assay: Cell cycle arrest in human MCF7/ADR cells assessed as accumulation at G2/M phase at 1 uM after 48 hrs by propidium iodide staining based flow cytometry (reference value: 31.94%); format: functional
NCI/ADR-RES [15] = assay: Cell cycle arrest in human MCF7/ADR cells assessed as accumulation at sub-G1 phase at 0.5 uM after 48 hrs by propidium iodide staining based flow cytometry (reference value: 0.25%); format: functional
MCF7 [16] = assay: Cell cycle arrest in human MCF7 cells assessed as accumulation at sub-G1 phase at 1 uM after 24 hrs by propidium iodide staining based flow cytometry (reference value: 1.78%); format: functional
MCF7 [17] = assay: Cell cycle arrest in human MCF7 cells assessed as accumulation at G0/G1 phase at 0.5 uM after 24 hrs by propidium iodide staining based flow cytometry (reference value: 57.83%); format: functional
MCF7 [18] = assay: Cell cycle arrest in human MCF7 cells assessed as accumulation at S-phase at 0.5 uM after 24 hrs by propidium iodide staining based flow cytometry (reference value: 18.24%); format: functional
MDA-MB-231 = assay: Antiproliferative activity against human MDA-MB-231 cells after 96 hrs by MTT assay; format: functional; conditions: MDA-MB-231, 96 h
[19] = Apparent clearance in Sprague-Dawley rat at 10 mg/kg, iv administered as single dose by LC-MS/MS analysis; format: ADME, organism-based; conditions: in vivo, read-out: CL(app) (converted)
MCF7 [20] = assay: Cell cycle arrest in human MCF7 cells assessed as accumulation at G2/M phase at 1 uM after 48 hrs by propidium iodide staining based flow cytometry (reference value: 24.26%); format: functional
NCI/ADR-RES [21] = assay: Cell cycle arrest in human MCF7/ADR cells assessed as accumulation at G2/M phase at 0.5 uM after 24 hrs by propidium iodide staining based flow cytometry (reference value: 27.75%); format: functional
NCI/ADR-RES [22] = assay: Cell cycle arrest in human MCF7/ADR cells assessed as accumulation at G0/G1 phase at 1 uM after 24 hrs by propidium iodide staining based flow cytometry (reference value: 45.98%); format: functional
NCI/ADR-RES [23] = assay: Cell cycle arrest in human MCF7/ADR cells assessed as accumulation at S-phase at 0.5 uM after 24 hrs by propidium iodide staining based flow cytometry (reference value: 25.87%); format: functional
[24] = MRT (0 to infinity) in Sprague-Dawley rat at 10 mg/kg, iv administered as single dose by LC-MS/MS analysis; format: ADME, organism-based; conditions: in vivo
NCI/ADR-RES [25] = assay: Downregulation of Cyclin-D1 protein expression in human MCF7/ADR cells at 0.05 to 0.1 uM after 24 to 48 hrs by Western blot analysis; format: functional, cell-based
[26] = Plasma concentration in Sprague-Dawley rat at 10 mg/kg, iv administered as single dose measured at 2 hrs post dosing by LC-MS/MS analysis; format: ADME, organism-based
NCI/ADR-RES [27] = assay: Cell cycle arrest in human MCF7/ADR cells assessed as accumulation at G2/M phase at 0.5 uM after 48 hrs by propidium iodide staining based flow cytometry (reference value: 31.94%); format: functional
NCI/ADR-RES [28] = assay: Cell cycle arrest in human MCF7/ADR cells assessed as accumulation at G0/G1 phase at 1 uM after 48 hrs by propidium iodide staining based flow cytometry (reference value: 38.76%); format: functional
MCF7 [29] = assay: Cell cycle arrest in human MCF7 cells assessed as accumulation at G2/M phase at 0.5 uM after 48 hrs by propidium iodide staining based flow cytometry (reference value: 24.26%); format: functional
NCI/ADR-RES [30] = assay: Cell cycle arrest in human MCF7/ADR cells assessed as accumulation at sub-G1 phase at 0.5 uM after 24 hrs by propidium iodide staining based flow cytometry (reference value: 1.08%); format: functional
[31] = Plasma concentration in Sprague-Dawley rat at 10 mg/kg, iv administered as single dose measured at 24 hrs post dosing by LC-MS/MS analysis; format: ADME, organism-based
NCI/ADR-RES [32] = assay: Cell cycle arrest in human MCF7/ADR cells assessed as accumulation at G2/M phase at 1 uM after 24 hrs by propidium iodide staining based flow cytometry (reference value: 27.75%); format: functional
NCI/ADR-RES [33] = assay: Cell cycle arrest in human MCF7/ADR cells assessed as accumulation at S-phase at 1 uM after 48 hrs by propidium iodide staining based flow cytometry (reference value: 29.45%); format: functional
NCI/ADR-RES [34] = assay: Cell cycle arrest in human MCF7/ADR cells assessed as accumulation at S-phase at 0.5 uM after 48 hrs by propidium iodide staining based flow cytometry (reference value: 29.45%); format: functional
MCF7 [35] = assay: Cell cycle arrest in human MCF7 cells assessed as accumulation at sub-G1 phase at 1 uM after 48 hrs by propidium iodide staining based flow cytometry (reference value: 0.18%); format: functional
NCI/ADR-RES [36] = assay: Cell cycle arrest in human MCF7/ADR cells assessed as accumulation at sub-G1 phase at 1 uM after 24 hrs by propidium iodide staining based flow cytometry (reference value: 1.08%); format: functional

C[C@H]1[C@@H](Oc2ccc(-c3cc(-c4ccccc4)[nH]n3)cc2)O[C@@H]2O[C@@]3(C)CC[C@H]4[C@H](C)CC[C@@H]1[C@@]24OO3
Activity (NCI/ADR-RES [1]): 9.75% | concentration at 0.083 h [2]: 4460 ng/mL | Activity (MCF7 [3]): 3.87% | concentration at 0.5 h [4]: 583 ng/mL | Activity (MCF7 [5]): 83.54% | Activity (MCF7 [6]): 0.44% | GI50 (NCI/ADR-RES [7]): 18 nM | Activity (NCI/ADR-RES [8]): 50.52% | Activity (NCI/ADR-RES [9]): inactive | GI50 (MCF7 [10]): 210 nM | Activity (MCF7 [11]): 10.13% | Activity (MCF7 [12]): 16.94% | Activity (NCI/ADR-RES [13]): 46.94% | Activity (NCI/ADR-RES [14]): 23.47% | Activity (NCI/ADR-RES [15]): 2.81% | Activity (MCF7 [16]): 0.56% | Activity (MCF7 [17]): 70.95% | Activity (MCF7 [18]): 11.95% | GI50 (MDA-MB-231): 240 nM | clearance [19]: 57.7 mL/min/kg | Activity (MCF7 [20]): 11.53% | Activity (NCI/ADR-RES [21]): 26.29% | Activity (NCI/ADR-RES [22]): 61.78% | Activity (NCI/ADR-RES [23]): 21.64% | MRT inf [24]: 2.28 h | Activity (NCI/ADR-RES [25]): inactive | concentration at 2 h [26]: 227 ng/mL | Activity (NCI/ADR-RES [27]): 30.15% | Activity (NCI/ADR-RES [28]): 56.01% | Activity (MCF7 [29]): 17.38% | Activity (NCI/ADR-RES [30]): 1.89% | concentration at 24 h [31]: 2.65 ng/mL | Activity (NCI/ADR-RES [32]): 23.83% | Activity (NCI/ADR-RES [33]): 9.72% | Activity (NCI/ADR-RES [34]): 20.41% | Activity (MCF7 [35]): 1.44% | Activity (NCI/ADR-RES [36]): 4.73%
